In ChEMBL document CHEMBL5726960, “Inhibiting neurotransmitter reuptake” (2018):

What was measured:
[1] = target: Sodium-dependent noradrenaline transporter (Homo sapiens, UniProt P23975); experiment: (§1) On the day of the experiment, the cells were removed from −80° C. or liquid nitrogen and thawed in a room temperature water bath. The cells were dilute to about 1-2E+06 with Freestyle medium. A 1 mL sample (1:2 dilution) was prepared, and the cells were counted. The cells were spun at 1100 rpm for 5 minutes, and the medium was aspirated off. The cells were resuspend in medium at 1.5E+06 cells/mL for about 60,000 cells per well. 40 μL of cells were dispensed per well in the Biocoat plates. The plates were spun at 1100 rpm for 1 minute to improve homogeneity of the cell layer and were incubated at 37° C. for a minimum of 3 hours.; format: cell-based
[2] = target: Sodium-dependent dopamine transporter (Homo sapiens, UniProt Q01959); experiment: as §1, with “plates. […]” for “plates.”, “neurotransmitter transporter dye was prepared in AB prior” for “plates were spun at 1100 rpm for 1 minute”, “use.” for “improve homogeneity of the cell layer and were incubated at 37° C. for a minimum of 3 hours.”; format: cell-based
Sodium-dependent dopamine transporter, sequence (Q01959 whole entry): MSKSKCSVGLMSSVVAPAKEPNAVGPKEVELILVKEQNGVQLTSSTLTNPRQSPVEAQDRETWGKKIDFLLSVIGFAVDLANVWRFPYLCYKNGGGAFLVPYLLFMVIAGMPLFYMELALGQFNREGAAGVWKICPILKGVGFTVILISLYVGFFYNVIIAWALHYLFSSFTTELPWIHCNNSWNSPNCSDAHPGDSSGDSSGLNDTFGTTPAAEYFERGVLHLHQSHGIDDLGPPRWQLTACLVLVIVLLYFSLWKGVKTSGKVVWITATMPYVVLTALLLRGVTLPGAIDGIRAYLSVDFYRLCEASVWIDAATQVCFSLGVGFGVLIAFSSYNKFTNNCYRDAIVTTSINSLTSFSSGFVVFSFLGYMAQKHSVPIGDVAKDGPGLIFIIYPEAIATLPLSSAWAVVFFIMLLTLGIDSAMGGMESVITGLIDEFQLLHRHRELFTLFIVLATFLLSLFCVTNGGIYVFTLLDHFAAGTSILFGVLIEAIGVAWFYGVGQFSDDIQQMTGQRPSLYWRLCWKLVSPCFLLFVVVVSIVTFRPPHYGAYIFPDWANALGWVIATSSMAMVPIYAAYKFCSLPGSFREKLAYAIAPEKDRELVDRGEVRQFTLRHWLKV

Sodium-dependent noradrenaline transporter, sequence (P23975 whole entry): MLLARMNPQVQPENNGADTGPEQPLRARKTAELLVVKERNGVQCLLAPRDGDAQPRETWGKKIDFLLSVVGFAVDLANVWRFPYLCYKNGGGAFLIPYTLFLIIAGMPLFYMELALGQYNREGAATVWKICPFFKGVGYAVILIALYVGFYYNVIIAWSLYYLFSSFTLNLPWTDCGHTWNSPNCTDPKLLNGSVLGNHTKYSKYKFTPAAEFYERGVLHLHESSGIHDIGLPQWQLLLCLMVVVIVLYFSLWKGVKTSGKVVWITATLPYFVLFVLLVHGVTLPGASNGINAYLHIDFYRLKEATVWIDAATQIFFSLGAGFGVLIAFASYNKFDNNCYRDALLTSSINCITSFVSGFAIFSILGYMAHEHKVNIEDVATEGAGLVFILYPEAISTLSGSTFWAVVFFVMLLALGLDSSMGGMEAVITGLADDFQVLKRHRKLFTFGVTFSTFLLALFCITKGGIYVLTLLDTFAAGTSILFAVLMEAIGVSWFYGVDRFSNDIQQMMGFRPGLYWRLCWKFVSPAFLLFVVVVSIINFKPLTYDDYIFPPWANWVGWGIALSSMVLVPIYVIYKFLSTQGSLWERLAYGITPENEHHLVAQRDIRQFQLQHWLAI

Ki [1]: 10.2 nM
Ki [2]: 56.6 nM
SMILES: CNCC(c1ccc(F)c(Cl)c1)[C@H](O)c1ccccc1 (some centres not stated)
